Results taken from patent US20070105878A1, “Purine formulations and methods for managing disorders” (priority 2005, published 2007).

Experiments:
Assay type in all cases: in vivo, mouse
Male CD1 mice [1] = assay: colonic propulsion assay (glass bead expulsion test); conditions: for increase of expulsion time from controls: subcutaneous, 30 minutes prior to glass bead expulsion test
From the text: The gastrointestinal transit model described in this report is a method for evaluating a test compounds ability to alter colonic propulsive motility. This model is designed to identify pharmacological agents that produce inhibitory effects on propulsive motor activity and is an excellent predictor of drugs that may be useful for the therapy of irritable bowel syndrome. This model can be modified to identify antagonists of constipative drugs or diarrhea producing drugs. In this study, Compound 112 was tested for its ability to affect colonic transport.
Male CD1 mice (Harlan) 12 weeks of age were used for this study. Mice were kept on a 12 hr light dark cycle and fed ad libitum.
Compound 112 was administered 30 minutes prior to the colonic propulsion study. After dosing, a 3 mm glass bead was inserted through the anus to a depth of 2 cm into the distal colon using a pre-measured plastic rod. […] A cutoff of 30 minutes was used. Data are expressed as the average ±SEM for each treatment. Data were averaged and analyzed by ANOVA followed by a post-hoc Tukey's test with a p value of less then […] indicating a statistical difference.
Compound 112 was compared to morphine, topfisopam, propentofylline, pentoxyfylline, and theophylline in the colonic propulsion assay. Drugs were administered subcutaneously at the indicated doses 30 minutes prior to the colonic propulsion assay.

Male CD1 mice [2] = assay: micturition model of overactive bladder; conditions: 1 hr period after furesomide
From the text: Micturition is a model of overactive bladder and is achieved through complex neurological mechanisms involving somatic, autonomic and central components. Disorders of micturition can roughly be classified as disturbances of bladder storage or of emptying. Failure to store urine may lead to various forms of incontinence, the main forms of which are urge and stress incontinence. Antimuscarinics are the mainstay of pharmacological treatment of the overactive bladder syndrome, which is characterized by urgency, frequency, and urge incontinence. The present study describes the activity of Compound 112 in an animal model of incontinence.
Male CD1 mice (Harlan Sprague Dawley, Indianapolis, Ind.) 12 weeks of age were used for these studies. This study was multiplexed with the pulmonary inflammation study. Animals were housed five per cage, kept on a standard 12 hr light cycle. Sample size was 6 animals per group.
Mice were injected with Compound 112 or vehicle solution as described, and then injected with 1 ml of water (s.c). Furesomide (SigmaAldrich) was formulated at a concentration of 1 mg/ml in water and injected ip at a volume of 10 ml/kg within 5 minutes after drug and water administration. […] Data were averaged and analyzed by ANOVA followed by a post-hoc Tukey's test with a p value of […] indicating a statistical difference.

CD1: ICR mice [3] = assay: tail suspension test in mice
From the text: There are a number of animal models of depression that are used to identify pharmacological agents that have clinical potential as anti-depressant agents. One such animal model is the mouse tail-suspension model. Mice, suspended by the tail, will rapidly develop behavioral despair that is characterized by immobility. This immobility is thought to reflect a state of lowered ‘mood’ (i.e., depression) in which animals have given up hope of escaping.
(§1) In both assays, antidepressants increase the amount of struggle and the latency until the first extended immobility. These assays are considered to be good predictors for antidepressant activity and identifies nearly all antidepressant classes including tricyclics, SSRIs, 5-HT1A receptor agonists, and MAOIs.
(§2) CD1: ICR mice from Harlan 12 weeks of age. Animals were dosed with Compound 112, 30 minutes prior to tail suspension analysis or forced swim test.
For the tail suspension test, a clip was attached to each mouse tail. Mice (2 per run) were suspended from the pressure transducer in an isolated plexiglass tail suspension chamber. Thirty seconds after suspending the mouse from the transducer, struggle activity was monitored via the transducer that was connected to a computer. The following parameters were measured: 1) number of despair events lasting 5 seconds or longer; 2) Total time in despair; and average time in despair. Data were averaged and analyzed by ANOVA followed by a post-hoc Tukey's test with a p value of less then […] indicating a statistical difference.

CD1: ICR mice [4] = assay: forced swim test in mice
Method: FIG. 2 illustrates forced swim test in mice. Mice are administered illustrative compounds of the invention and subjected to the forced swim test for 6 minutes with activity timed for the duration of the test. Compound 112 was administered 30 minutes prior to the swim test.
The forced swim test is another commonly used animal model for detecting anti-depressant activity of pharmacological agents. This test is complimentary to the tail suspension test. When mice are required to swim in a container with no route of escape they develop a behavioral despair that is characterized by immobility except for small movements needed to remain afloat. This immobility is thought to reflect a state of lowered ‘mood’ (i.e., depression) in which animals have given up hope of escaping. Forced swim test immobility is attenuated by a variety of clinically active antidepressants.
as §1, §2

Male C57/B16 mice = assay: experimental autoimmune encephalomyelitis (EAE), animal model of multiple sclerosis, open-field analysis; conditions: daily administration at 6 and 30 mg/kg
From the text: Experimental autoimmune encephalomyelitis (EAE) is an animal model of multiple sclerosis. This model is produced by administering a myelin basic protein peptide (MBP) fragment that induces an autoimmune response directed to the myelin sheath surrounding motor neurons. Demyelination of neurons within the CNS leads to impaired locomotor function and mirrors symptoms of the human disease. The disease, and the model, appears in exacerbations and remissions and is characterized by loss of nerve conduction and chronic progression of disability. In this study, we assessed the progression of locomotor dysfunction in mice subjected to EAE and treated with an illustrative compound of the invention.
Male C57/B16 mice (Harlan Sprague Dawley, Indianapolis, Ind.) 8 weeks of age were used for these studies. […]
Open-field assessments were conducted on days 7, 14, 21 and 28. Mice were evaluated by activity in an open-field activity monitor (Med-Associates-OFA ENV-510). Mice were place in the activity monitor for 15 minutes and a variety of open-field behaviors were monitored including distance traveled, ambulatory time, rearing behavior, time in center of field and stereotypic behavior. Data were averaged and analyzed by ANOVA followed by a post-hoc Tukey's test with a p value of less then […] indicating a statistical difference.

mice = assay: acetylcholine writhing assay
Method: Experiments were conducted to collect data in an animal model that reflects the gastrointestinal pain component of IBS. In this model, mice were injected intraperitoneally with acetylcholine. Acetylcholine evokes contractions of smooth muscle in the gastrointestinal tract. These contractions are painful and are expressed as a writhing response. Two measurements are made in this model: 1) time to onset of writhing and 2) total writhing time. In these studies, mice were treated with Compound 112 prior to acetylcholine administration and time to onset and total time writhing were measured.
Compound 112 was tested for its ability to attenuate acetylcholine induce writhing. The anti-writhing response was compared to propentofylline, pentoxyfylline and theophylline. All drugs were administered subcutaneously 30 minutes prior to acetylcholine administration. Acetylcholine was administered at a dose of 3 mg/kg (IP). Acetylcholine writhing was measured for a 10 minute time period. Time to onset and total writhing time were recorded.
Compound 112 was administered via both routes 30 minutes prior to acetylcholine administration. Acetylcholine was administered at a dose of 3 mg/kg (IP). Acetylcholine writhing was measured for a 10 minute time period. Time to onset and total writhing time were recorded.

[5] = subcutaneous, 30 minutes prior to acetylcholine 3 mg/kg IP

## CCC1C(C)=NN=C(c2ccc(OC)c(OC)c2)c2cc(OC)c(OC)cc21 (centres unmarked) [tofisopam, reference compound]
Male CD1 mice [1]
  increase of expulsion time from controls: less than 3 fold

## CCOCn1cnc2c1c(=O)n(CCCCC(C)(C)O)c(=O)n2C [Compound 112]
Male CD1 mice [2]
  number of urination events: significantly reduced
  urinary volume: significantly reduced
CD1: ICR mice [3]; 6 mg/kg, dosed 30 minutes before test
  number of despair events: reduced
CD1: ICR mice [3]; 6 and 30 mg/kg, dosed 30 minutes before test
  despair time: significantly decreased
CD1: ICR mice [3]; higher doses (≧30 mg/kg)
  anti-depressant activity: lost
CD1: ICR mice [3]; lower doses (6 and 10 mg/kg)
  antidepressant activity: observed
Male CD1 mice [1]; 30 and 100 mg/kg, 30 minutes after administration
  expulsion of a colonically inserted glass bead: significantly slowed
Male CD1 mice [1]; 30 and 100 mg/kg, vs vehicle
  extension of expulsion time: > 5 fold
Male CD1 mice [1]
  increase of expulsion time from controls: 5 fold
CD1: ICR mice [4]; higher doses (≧30 mg/kg)
  anti-depressant activity: lost
CD1: ICR mice [4]; lower doses (6 and 10 mg/kg)
  antidepressant activity: observed
Male C57/B16 mice
  development of locomotor dysfunction: significantly attenuated
mice; 30 minutes prior to acetylcholine 3 mg/kg IP
  potency, oral vs subcutaneous administration: significantly more potent
mice; SC, 30 mg/kg
  activity on onset time: produced activity
mice; oral, 10 mg/kg
  activity on onset time: significant activity
mice; [5]
  activity on acetylcholine induced writhing: had activity
  overall potency vs theophylline, pentoxyfylline and propentofylline: more potent
  potency in attenuating writhing time vs propentofylline, pentoxyfylline and theophylline: significantly more potent
  potency in delaying onset of writhing vs propentofylline, pentoxyfylline and theophylline: significantly more potent

## CCCn1cnc2c1c(=O)n(CCCCC(C)=O)c(=O)n2C [propentofylline, reference compound]
mice; [5]
  activity on acetylcholine induced writhing: had activity

## Cn1c(=O)c2[nH]cnc2n(C)c1=O [theophylline, reference compound]
mice; [5]
  activity on acetylcholine induced writhing: had activity

## CC(=O)CCCCn1c(=O)c2c(ncn2C)n(C)c1=O [pentoxyfylline, reference compound]
mice; [5]
  activity on acetylcholine induced writhing: had activity
